# Like-named read-outs stand apart in the source and are kept apart here.
# Test: PK after subcutaneous administration of solutions in rats
# Format: in vivo, Wistar Han rat
# Conditions: for Plasma concentration: 0 h
# Method: Formulations containing the compound of Formula (Ia) were prepared as aqueous solutions or oral formulations and administered subcutaneously to rats, dogs, cynomolgus monkey, and/or rhesus monkey.
# A solution of the compound of Formula (Ia) in 10% ethanol, 13% water, and 77% PEG 200 (400 mg/mL) was prepared. The solution was administered subcutaneously to dogs at a dose of 12 mg/kg and rats at a dose of 50 mg/kg and the pharmacokinetic (PK) profile was determined. […] In both species, plasma concentrations of the compound of Formula (Ia) were maintained above the target trough concentration of 20 nM (corresponding to an IQ of 5) for at least 84 days (12 weeks).
# A solution of the free acid of the compound of Formula (Ia) in 15% water and 85% PEG 300 (300 mg/mL) was prepared. The solution was administered subcutaneously to male Wistar Han rats at a dose level of 50 mg/kg and dose volume of 0.167 mL/kg and the pharmacokinetic (PK) profile was determined.
# A 300 mg/ml solution of a compound of Formula (Ia) having 9.8 w/w % water, 65.0 w/w % PEG 300, and 25.2 w/w % of the compound of Formula (Ia) was prepared. The solution was administered subcutaneously to rats at a dose of 50 mg/kg and to dogs at a dose of 12 mg/kg and the pharmacokinetic (PK) profile was determined. […] In the rat, plasma concentrations of the compound of Formula (Ia) were maintained above the target trough concentration of 20 nM for at least 168 days (24 weeks). In the dog, plasma concentrations of the compound of Formula (Ia) were maintained above the target trough concentration of 20 nM for at least 84 days (12 weeks).
# (§1) A 150 mg/ml solution of a compound of Formula (Ia) having 27.92 w/w % water, 58.04 w/w % PEG 300, 13.47 w/w % of a compound of Formula (Ia), and 1.1 w/w % NaOH was prepared. The solution was administered subcutaneously to rats at a dose of 50 mg/kg and to dogs at a dose of 12 mg/kg and the pharmacokinetic (PK) profile was determined. […] In the rat, plasma concentrations of the compound of Formula (Ia) were maintained above the target trough concentration of 20 nM for at least 126 days (18 weeks). In the dog, plasma concentrations of the compound of Formula (Ia) were maintained above the target trough concentration of 20 nM for at least 56 days (8 weeks).
# as §1, with “300” for “150”, “23.2” for “27.92”, “50.0” for “58.04”, “25.7” for “13.47”
# A 50 mg/ml solution of a compound of Formula (Ia) having 30.07 w/w % water, 64.40 w/w % PEG 300, 4.68 w/w % of a sodium salt of the compound of Formula (Ia), and 0.85 w/w % poloxamer 188 was prepared. The solution was administered subcutaneously to rats at a dose of 50 mg/kg and to dogs at a dose of 6 mg/kg and the pharmacokinetic (PK) profile was determined. […] In the rat, plasma concentrations of the compound of Formula (Ia) were maintained above the target trough concentration of 20 nM for at least 28 days (4 weeks). In the dog, plasma concentrations of the compound of Formula (Ia) were maintained above the target trough concentration of 20 nM for at least 14 days (2 weeks).
# A 75 mg/ml solution of a compound of Formula (Ia) having 29.21 w/w % water, 62.55 w/w % PEG 300, 6.97 w/w % of a sodium salt of the compound of Formula (Ia), and 1.68 w/w % poloxamer 188 was prepared. The solution was administered subcutaneously to rats at a dose of 50 mg/kg and to dogs at a dose of 6 mg/kg and the pharmacokinetic (PK) profile was determined. […]
# [1] = male, Wistar Han, rat, plasma, sc, 50 mg/kg, rat #3, SC 50 mg/kg, 300 mg/mL in 15% water/85% PEG 300
# [2] = male, Wistar Han, rat, plasma, sc, 50 mg/kg, rat mean, n=3, SC 50 mg/kg, 300 mg/mL in 15% water/85% PEG 300
# [3] = rat, SC 50 mg/kg, 75 mg/mL solution (w/w %: 29.21 water, 62.55 PEG 300, 6.97 sodium salt of Formula (Ia), 1.68 poloxamer 188), mean ± SD, n=3
# [4] = rat, SC 50 mg/kg, 125 mg/mL solution (w/w %: 27.51 water, 58.92 PEG 300, 11.48 sodium salt of Formula (Ia), 2.09 poloxamer 188), mean ± SD, n=3
# [5] = rat, SC 50 mg/kg, 150 mg/mL solution (w/w %: 26.6 water, 56.97 PEG 300, 13.39 Formula (Ia), 0.57 NaOH, 2.49 poloxamer 188), mean ± SD, n=3
# [6] = rat, SC 50 mg/kg, 300 mg/mL solution (w/w %: 9.8 water, 65.0 PEG 300, 25.2 Formula (Ia)), mean ± SD, n=3
# [7] = rat, SC 50 mg/kg, 300 mg/mL solution (w/w %: 21.97 water, 47.05 PEG 300, 25.21 Formula (Ia), 1.08 NaOH, 4.69 poloxamer 188), mean ± SD, n=3
smiles,measurement,setting,value
"CC(C)(C#Cc1ccc(-c2ccc(Cl)c3c(NS(C)(=O)=O)nn(CC(F)(F)F)c23)c([C@H](Cc2cc(F)cc(F)c2)NC(=O)Cn2nc(C(F)(F)F)c3c2C(F)(F)[C@@H]2C[C@H]32)n1)S(C)(=O)=O [Formula (Ia), N—((S)-1-(3-(4-chloro-3-(methylsulfonamido)-1-(2,2,2-trifluoroethyl)-1H-indazol-7-yl)-6-(3-methyl-3-(methylsulfonyl)but-1-yn-1-yl)pyridin-2-yl)-2-(3,5-difluorophenyl)ethyl)-2-((3bS,4aR)-5,5-difluoro-3-(trifluoromethyl)-3b,4,4a,5-tetrahydro-1H-cyclopropa[3,4]cyclopenta[1,2-c]pyrazol-1-yl)acetamide]",concentration at 96 h,[1],85.2 nM
same,concentration at 168 h,[1],137 nM
same,concentration at 336 h,[1],284 nM
same,concentration at 504 h,[1],281 nM
same,concentration at 672 h,[1],304 nM
same,concentration at 840 h,[1],302 nM
same,concentration at 1008 h,[1],289 nM
same,concentration at 1344 h,[1],278 nM
same,concentration at 1680 h,[1],200 nM
same,concentration at 1 h,"male, Wistar Han, rat, plasma, sc, 50 mg/kg, rat mean, n=3, 1 h, SC 50 mg/kg, 300 mg/mL in 15% water/85% PEG 300",8.6 nM
same,concentration at 3 h,"male, Wistar Han, rat, plasma, sc, 50 mg/kg, rat mean, n=3, 3 h, SC 50 mg/kg, 300 mg/mL in 15% water/85% PEG 300",21.5 nM
same,concentration at 8 h,"male, Wistar Han, rat, plasma, sc, 50 mg/kg, rat mean, n=3, 8 h, SC 50 mg/kg, 300 mg/mL in 15% water/85% PEG 300",32.2 nM
same,concentration at 24 h,"male, Wistar Han, rat, plasma, sc, 50 mg/kg, rat mean, n=3, 24 h, SC 50 mg/kg, 300 mg/mL in 15% water/85% PEG 300",48.2 nM
same,concentration at 48 h,"male, Wistar Han, rat, plasma, sc, 50 mg/kg, rat mean, n=3, 48 h, SC 50 mg/kg, 300 mg/mL in 15% water/85% PEG 300",70.6 nM
same,concentration at 72 h,"male, Wistar Han, rat, plasma, sc, 50 mg/kg, rat mean, n=3, 72 h, SC 50 mg/kg, 300 mg/mL in 15% water/85% PEG 300",67.5 nM
same,concentration at 96 h,[2],75.8 nM
same,concentration at 168 h,[2],137 nM
same,concentration at 336 h,[2],272 nM
same,concentration at 504 h,[2],292 nM
same,concentration at 672 h,[2],312 nM
same,concentration at 840 h,[2],313 nM
same,concentration at 1008 h,[2],282 nM
same,concentration at 1344 h,[2],253 nM
same,concentration at 1680 h,[2],189 nM
same,AUC(0-t),"male, Wistar Han, rat, plasma, sc, 50 mg/kg, rat, single SC 50 mg/kg, 300 mg/mL free acid in 85:15 w/w PEG 300:water, mean ± SD, n=3, read-out: AUC0-168h",13.3 ± 0.3 µM·h
same,AUC(0-t),"male, Wistar Han, rat, plasma, sc, 50 mg/kg, rat, single SC 50 mg/kg, 300 mg/mL free acid in 85:15 w/w PEG 300:water, mean ± SD, n=3, read-out: AUC0-336h",47.6 ± 1.2 µM·h
same,AUC(0-t),"male, Wistar Han, rat, plasma, sc, 50 mg/kg, rat, single SC 50 mg/kg, 300 mg/mL free acid in 85:15 w/w PEG 300:water, mean ± SD, n=3, read-out: AUC0-672h",146 ± 6 µM·h
same,Plasma concentration,"rat #1, SC 50 mg/kg, 300 mg/mL in 15% water/85% PEG 300",BLQ
same,Plasma concentration,"rat #2, SC 50 mg/kg, 300 mg/mL in 15% water/85% PEG 300",BLQ
same,Plasma concentration,"rat #3, SC 50 mg/kg, 300 mg/mL in 15% water/85% PEG 300",BLQ
same,Time plasma concentrations maintained above the target trough concentration of 20 nM,"rat, SC 50 mg/kg, 50 mg/mL solution (w/w %: 30.07 water, 64.40 PEG 300, 4.68 sodium salt of Formula (Ia), 0.85 poloxamer 188)",at least 28 days
same,AUC0-28d,"rat, SC 50 mg/kg, 50 mg/mL solution (w/w %: 30.07 water, 64.40 PEG 300, 4.68 sodium salt of Formula (Ia), 0.85 poloxamer 188), mean ± SD, n=3",643 ± 75 µM·h
same,Time plasma concentrations maintained above the target trough concentration of 20 nM,"rat, SC 50 mg/kg, 75 mg/mL solution (w/w %: 29.21 water, 62.55 PEG 300, 6.97 sodium salt of Formula (Ia), 1.68 poloxamer 188)",at least 42 days
same,AUC0-7d,[3],241 ± 22 µM·h
same,AUC0-28d,[3],690 ± 32 µM·h
same,Time plasma concentrations maintained above the target trough concentration of 20 nM,"rat, SC 50 mg/kg, 100 mg/mL solution (w/w %: 28.36 water, 60.73 PEG 300, 9.23 sodium salt of Formula (Ia), 1.68 poloxamer 188)",at least 28 days
same,AUC0-28d,"rat, SC 50 mg/kg, 100 mg/mL solution (w/w %: 28.36 water, 60.73 PEG 300, 9.23 sodium salt of Formula (Ia), 1.68 poloxamer 188), mean ± SD, n=3",716 ± 62 µM·h
same,Time plasma concentrations maintained above the target trough concentration of 20 nM,"rat, SC 50 mg/kg, 125 mg/mL solution (w/w %: 27.51 water, 58.92 PEG 300, 11.48 sodium salt of Formula (Ia), 2.09 poloxamer 188)",at least 28 days
same,AUC0-7d,[4],153 ± 38 µM·h
same,AUC0-28d,[4],673 ± 67 µM·h
same,Time plasma concentrations maintained above the target trough concentration of 20 nM,"rat, SC 50 mg/kg, 150 mg/mL solution (w/w %: 26.6 water, 56.97 PEG 300, 13.39 Formula (Ia), 0.57 NaOH, 2.49 poloxamer 188)",at least 98 days
same,AUC0-98d,[5],949 ± 114 µM·h
same,AUC0-112d,[5],963 ± 102 µM·h
same,Time plasma concentrations maintained above the target trough concentration of 20 nM,"rat, SC 50 mg/kg, 150 mg/mL solution (w/w %: 27.92 water, 58.04 PEG 300, 13.47 Formula (Ia), 1.1 NaOH)",at least 126 days
same,AUC0-98d,"rat, SC 50 mg/kg, 150 mg/mL solution (w/w %: 27.92 water, 58.04 PEG 300, 13.47 Formula (Ia), 1.1 NaOH), mean ± SD, n=3",801 ± 119 µM·h
same,Time plasma concentrations maintained above the target trough concentration of 20 nM,"rat, SC 50 mg/kg, 300 mg/mL solution (w/w %: 9.8 water, 65.0 PEG 300, 25.2 Formula (Ia))",at least 168 days
same,AUC0-98d,[6],531 ± 30 µM·h
same,AUC0-168d,[6],730 ± 55 µM·h
same,Time plasma concentrations maintained above the target trough concentration of 20 nM,"rat, SC 50 mg/kg, 300 mg/mL solution (w/w %: 21.97 water, 47.05 PEG 300, 25.21 Formula (Ia), 1.08 NaOH, 4.69 poloxamer 188)",at least 98 days
same,AUC0-98d,[7],928 ± 175 µM·h
same,AUC0-140d,[7],948 ± 169 µM·h
same,Time plasma concentrations maintained above the target trough concentration of 20 nM,"rat, SC 50 mg/kg, 300 mg/mL solution (w/w %: 23.2 water, 50.0 PEG 300, 25.7 Formula (Ia), 1.1 NaOH)",at least 126 days
same,AUC0-126d,"rat, SC 50 mg/kg, 300 mg/mL solution (w/w %: 23.2 water, 50.0 PEG 300, 25.7 Formula (Ia), 1.1 NaOH), mean ± SD, n=3",698 ± 13 µM·h
same,Time plasma concentrations maintained above the target trough concentration of 20 nM,"rat, SC 50 mg/kg, 400 mg/mL solution in 10% ethanol, 13% water, 77% PEG 200",at least 84 days
same,AUC0-84d,"rat, SC 50 mg/kg, 400 mg/mL solution in 10% ethanol, 13% water, 77% PEG 200, mean ± SD, n=3",404 ± 139 µM·h
same,AUC0-1680h,"rat, single SC 50 mg/kg, 300 mg/mL free acid in 85:15 w/w PEG 300:water, mean ± SD, n=3",412 ± 21 µM·h
